Experimental data: US20230322747A1, “OXADIAZOLE HDAC6 INHIBITORS AND USES THEREOF” (Eikonizo Therapeutics, Inc., priority 2022, published 2023)

Columns and labels:
[1] = target: Human HDAC6 (Homo sapiens (Human), UniProt Q9UBN7); test: HDAC6 enzymatic activity assay (Caliper endpoint or fluorogenic format); assay type: biochemical; settings: for IC50: in vitro enzymatic; for Selectivity (6 v 8) (fold): ratio of HDAC8 IC50/HDAC6 IC50
[2] = target: Human HDAC8 (Homo sapiens (Human), UniProt Q9BY41); test: Caliper endpoint assay for HDAC8 enzymatic activity; assay type: biochemical; settings: in vitro enzymatic
Sequence of Human HDAC8 (Q9BY41 whole entry): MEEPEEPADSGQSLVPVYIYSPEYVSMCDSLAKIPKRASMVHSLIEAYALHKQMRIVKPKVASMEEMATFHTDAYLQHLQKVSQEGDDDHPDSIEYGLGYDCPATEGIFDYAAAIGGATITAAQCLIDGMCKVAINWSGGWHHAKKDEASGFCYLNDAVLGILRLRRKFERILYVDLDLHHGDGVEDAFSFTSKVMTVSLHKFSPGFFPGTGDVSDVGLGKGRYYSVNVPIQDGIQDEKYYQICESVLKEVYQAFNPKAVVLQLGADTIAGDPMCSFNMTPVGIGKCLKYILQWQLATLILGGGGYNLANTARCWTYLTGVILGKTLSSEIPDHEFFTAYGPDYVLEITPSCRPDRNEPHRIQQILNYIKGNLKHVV

Sequence of Human HDAC6 (Q9UBN7 whole entry): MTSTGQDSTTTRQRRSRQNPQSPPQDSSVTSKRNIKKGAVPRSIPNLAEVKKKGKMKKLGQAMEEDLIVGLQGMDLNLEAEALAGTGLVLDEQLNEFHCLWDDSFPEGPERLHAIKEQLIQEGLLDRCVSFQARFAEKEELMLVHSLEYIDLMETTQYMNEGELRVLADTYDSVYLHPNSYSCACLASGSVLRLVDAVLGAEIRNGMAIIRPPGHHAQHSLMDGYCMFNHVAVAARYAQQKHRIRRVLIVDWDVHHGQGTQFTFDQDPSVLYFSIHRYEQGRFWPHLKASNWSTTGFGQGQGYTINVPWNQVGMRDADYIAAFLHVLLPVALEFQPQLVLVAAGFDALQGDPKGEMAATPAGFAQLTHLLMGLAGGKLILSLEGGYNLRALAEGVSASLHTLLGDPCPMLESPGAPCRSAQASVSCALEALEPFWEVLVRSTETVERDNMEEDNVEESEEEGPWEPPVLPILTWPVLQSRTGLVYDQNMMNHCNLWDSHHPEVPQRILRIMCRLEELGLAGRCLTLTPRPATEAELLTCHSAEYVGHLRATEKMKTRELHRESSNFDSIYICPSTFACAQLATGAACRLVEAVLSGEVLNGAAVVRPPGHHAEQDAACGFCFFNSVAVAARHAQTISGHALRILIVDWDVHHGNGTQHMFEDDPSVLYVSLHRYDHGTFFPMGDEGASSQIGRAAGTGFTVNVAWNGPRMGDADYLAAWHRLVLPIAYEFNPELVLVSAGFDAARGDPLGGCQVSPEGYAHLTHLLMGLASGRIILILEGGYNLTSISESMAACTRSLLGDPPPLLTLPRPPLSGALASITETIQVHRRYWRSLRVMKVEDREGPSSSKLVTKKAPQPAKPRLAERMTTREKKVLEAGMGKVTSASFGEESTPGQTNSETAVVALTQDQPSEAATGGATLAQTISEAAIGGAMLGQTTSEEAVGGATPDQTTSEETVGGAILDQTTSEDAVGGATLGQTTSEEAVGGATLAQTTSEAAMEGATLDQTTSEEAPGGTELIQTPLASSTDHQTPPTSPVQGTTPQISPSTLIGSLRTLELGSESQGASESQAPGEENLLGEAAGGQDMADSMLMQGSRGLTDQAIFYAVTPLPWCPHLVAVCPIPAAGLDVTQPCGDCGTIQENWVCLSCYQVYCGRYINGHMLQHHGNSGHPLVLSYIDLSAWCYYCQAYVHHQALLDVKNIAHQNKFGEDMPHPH

Row | Compound | IC50 [1] [nM] | Selectivity (6 v 8) (fold) [1] | IC50 [2] [nM]
1 | Fc1ccc(OCc2ncc(-c3nnc(C(F)F)o3)cn2)cc1 [Compound 1, 2-(difluoromethyl)-5-(2-((4-fluorophenoxy)methyl)pyrimidin-5-yl)-1,3,4-oxadiazole] | 1 to 100 | V (V: >1000) | > 100000
2 | Fc1ccc(Cl)cc1OCc1ccc(-c2nnc(C(F)F)o2)cn1 [Compound 2, 2-(6-((5-chloro-2-fluorophenoxy)methyl)pyridin-3-yl)-5-(difluoromethyl)-1,3,4-oxadiazole] | 1 to 100 | V (V: >1000) | > 100000
3 | Fc1cc(Cl)ccc1OCc1ccc(-c2nnc(C(F)F)o2)cn1 [Compound 3, 2-(6-((4-chloro-2-fluorophenoxy)methyl)pyridin-3-yl)-5-(difluoromethyl)-1,3,4-oxadiazole] | 1 to 100 | V (V: >1000) | > 100000
4 | Fc1ccc(OCc2ccc(-c3nnc(C(F)F)o3)cn2)c(Cl)c1 [Compound 4, 2-(6-((2-chloro-4-fluorophenoxy)methyl)pyridin-3-yl)-5-(difluoromethyl)-1,3,4-oxadiazole] | 1 to 100 | V (V: >1000) | > 100000
5 | Fc1ccc(OCc2ccc(-c3nnc(C(F)F)o3)cn2)c(F)c1 [Compound 5, 2-(difluoromethyl)-5-(6-((2,4-difluorophenoxy)methyl)pyridin-3-yl)-1,3,4-oxadiazole] | 1 to 100 | V (V: >1000) | > 100000
6 | Fc1ccc(OCc2ncc(-c3nnc(C(F)F)o3)cc2F)cc1 [Compound 6, 2-(difluoromethyl)-5-(5-fluoro-6-((4-fluorophenoxy)methyl)pyridin-3-yl)-1,3,4-oxadiazole] | 1 to 100 | V (V: >1000) | > 100000
7 | Fc1ccc(Cl)c(OCc2ccc(-c3nnc(C(F)F)o3)cn2)c1 [Compound 7, 2-(6-((2-chloro-5-fluorophenoxy)methyl)pyridin-3-yl)-5-(difluoromethyl)-1,3,4-oxadiazole] | 1 to 100 | V (V: >1000) | > 100000
8 | FC(F)c1nnc(-c2ccc(COc3ccc(Cl)cc3)nc2)o1 [Compound 8, 2-(6-((4-chlorophenoxy)methyl)pyridin-3-yl)-5-(difluoromethyl)-1,3,4-oxadiazole] | 1 to 100 | V (V: >1000) | > 100000
9 | Fc1ccc(OCc2ccc(-c3nnc(C(F)F)o3)cn2)cc1F [Compound 9, 2-(difluoromethyl)-5-(6-((3,4-difluorophenoxy)methyl)pyridin-3-yl)-1,3,4-oxadiazole] | 1 to 100 | V (V: >1000) | > 100000
10 | FC(F)c1nnc(-c2ccc(COc3cccc4cccnc34)nc2)o1 [Compound 10, 2-(difluoromethyl)-5-(6-((quinolin-8-yloxy)methyl)pyridin-3-yl)-1,3,4-oxadiazole] | 1 to 100 | V (V: >1000) | > 100000
11 | FC(F)c1nnc(-c2ccc(COc3cccc4ccccc34)nc2)o1 [Compound 11, 2-(difluoromethyl)-5-(6-((naphthalen-1-yloxy)methyl)pyridin-3-yl)-1,3,4-oxadiazole] | 1 to 100 | V (V: >1000) | > 100000
12 | Fc1ccc(OCc2ccc(-c3nnc(C(F)F)o3)cn2)cc1 [Compound 12, 2-(difluoromethyl)-5-(6-((4-fluorophenoxy)methyl)pyridin-3-yl)-1,3,4-oxadiazole] | 1 to 100 | V (V: >1000) | > 100000
13 | FC(F)c1nnc(-c2ccc(C(F)(F)Oc3cccc4cccnc34)nc2)o1 [Compound 13, 2-(6-(difluoro(quinolin-8-yloxy)methyl)pyridin-3-yl)-5-(difluoromethyl)-1,3,4-oxadiazole] | 1 to 100 | V (V: >1000) | > 100000
14 | Fc1ccc(OC(F)(F)c2ccc(-c3nnc(C(F)F)o3)cn2)cc1 [Compound 15, 2-(6-(difluoro(4-fluorophenoxy)methyl)pyridin-3-yl)-5-(difluoromethyl)-1,3,4-oxadiazole] | 100 to 1000 | V (V: >1000) | > 100000
15 | FC(F)c1nnc(-c2ccc(COc3ccccn3)nc2)o1 [Compound 16, 2-(difluoromethyl)-5-(6-((pyridin-2-yloxy)methyl)pyridin-3-yl)-1,3,4-oxadiazole] | 1 to 100 | V (V: >1000) | > 100000
16 | FC(F)c1nnc(-c2ccc(COc3cccnc3)nc2)o1 [Compound 17, 2-(difluoromethyl)-5-(6-((pyridin-3-yloxy)methyl)pyridin-3-yl)-1,3,4-oxadiazole] | 1 to 100 | V (V: >1000) | 10000 to 100000
17 | N#Cc1ccc(OCc2ncc(-c3nnc(C(F)F)o3)cn2)cc1 [Compound 164] | 1 to 100 | – | –
18 | N#Cc1ccc(OCc2ncc(-c3nnc(C(F)F)o3)cc2F)cc1 [Compound 165] | 1 to 100 | – | –
19 | Fc1ccc(OCc2ncc(-c3nnc(C(F)F)o3)cn2)cc1 [Compound 166, 2-(difluoromethyl)-5-(2-((4-fluorophenoxy)methyl)pyrimidin-5-yl)-1,3,4-oxadiazole] | 1 to 100 | – | –
20 | N#Cc1cccc(OCc2ncc(-c3nnc(C(F)F)o3)cc2F)c1 [Compound 167] | 1 to 100 | – | –
21 | C#Cc1ccccc1OCc1ncc(-c2nnc(C(F)F)o2)cn1 [Compound 168] | 1 to 100 | – | –
22 | FC(F)c1nnc(-c2ccc(COc3ccc4c(c3)CCNC4)nc2)o1 [Compound 170] | 100 to 1000 | – | –

Row | Compound | IC50 [1] [nM] | Selectivity (6 v 8) (fold) [1] | IC50 [2] [nM]
23 | Cn1cc2cc(OCc3ncc(-c4nnc(C(F)F)o4)cc3F)ccc2n1 [Compound 178, 2-(Difluoromethyl)-5-(5-fluoro-6-(((2-methyl-2H-indazol-5-yl)oxy)methyl)pyridin-3-yl)-1,3,4-oxadiazole] | 1 to 100 | – | –
24 | Fc1cc(-c2nnc(C(F)F)o2)cnc1COc1cccc2ncncc12 [Compound 179, 2-(Difluoromethyl)-5-(5-fluoro-6-((quinazolin-5-yloxy)methyl)pyridin-3-yl)-1,3,4-oxadiazole] | 1 to 100 | – | –
25 | Fc1cc(-c2nnc(C(F)F)o2)cnc1COc1ccc2cncnc2c1 [Compound 180, 2-(difluoromethyl)-5-(5-fluoro-6-((quinazolin-7-yloxy)methyl)pyridin-3-yl)-1,3,4-oxadiazole] | 1 to 100 | – | –
26 | Fc1cc(-c2nnc(C(F)F)o2)cnc1COc1ccc2ncncc2c1 [Compound 181, 2-(Difluoromethyl)-5-(5-fluoro-6-((quinazolin-6-yloxy)methyl)pyridin-3-yl)-1,3,4-oxadiazole] | 1 to 100 | – | –
27 | Fc1cc(-c2nnc(C(F)F)o2)cnc1COc1ccc2ccccc2c1 [Compound 182, 2-(Difluoromethyl)-5-(5-fluoro-6-((naphthalen-2-yloxy)methyl)pyridin-3-yl)-1,3,4-oxadiazole] | 1 to 100 | – | –
28 | FC(F)c1nnc(-c2ccc(COc3cnc4ccnn4c3)nc2)o1 [Compound 183, 2-(Difluoromethyl)-5-(6-((pyrazolo[1,5-a]pyrimidin-6-yloxy)methyl)pyridin-3-yl)-1,3,4-oxadiazole] | 1 to 100 | – | –
29 | FC(F)c1nnc(-c2ccc(COc3ccc(-c4ccccc4)cc3)nc2)o1 [Compound 185, 2-(6-(([1,1′-Biphenyl]-4-yloxy)methyl)pyridin-3-yl)-5-(difluoromethyl)-1,3,4-oxadiazole] | 1 to 100 | – | –
30 | FC(F)c1nnc(-c2ccc(COc3ccnc(-c4ccccc4)c3)nc2)o1 [Compound 186, 2-(Difluoromethyl)-5-(6-(((2-phenylpyridin-4-yl)oxy)methyl)pyridin-3-yl)-1,3,4-oxadiazole] | 1 to 100 | – | –
31 | FC(F)c1nnc(-c2ccc(COc3ccccc3-c3ccccc3)nc2)o1 [Compound 187, 2-(6-(([1,1′-biphenyl]-2-yloxy)methyl)pyridin-3-yl)-5-(difluoromethyl)-1,3,4-oxadiazole] | 1000 to 10000 | – | –
32 | FC(F)c1nnc(-c2ccc(COc3cccc(-c4ccccc4)c3)nc2)o1 [Compound 188, 2-(6-(([1,1′-Biphenyl]-3-yloxy)methyl)pyridin-3-yl)-5-(difluoromethyl)-1,3,4-oxadiazole] | 100 to 1000 | – | –
33 | FC(F)c1nnc(-c2ccc(COc3ccnc(Cl)c3)nc2)o1 [Compound 189, 2-(6-(((2-Chloropyridin-4-yl)oxy)methyl)pyridin-3-yl)-5-(difluoromethyl)-1,3,4-oxadiazole] | 1 to 100 | – | –
34 | O=C(Nc1ccccc1)c1cccc(OCc2ccc(-c3nnco3)cn2)c1 [Compound 196, 3-((5-(1,3,4-oxadiazol-2-yl)pyridin-2-yl)methoxy)-N-phenylbenzamide] | 1 to 100 | – | –
35 | CNC(=O)c1cccc(OCc2ccc(-c3nnc(C(F)F)o3)cn2)c1 [Compound 197, 3-((5-(5-(difluoromethyl)-1,3,4-oxadiazol-2-yl)pyridin-2-yl)methoxy)-N-methylbenzamide] | 1 to 100 | – | –
36 | Cn1nccc1-c1ccc(OCc2ccc(-c3nnc(C(F)F)o3)cn2)cc1 [Compound 199, 2-(Difluoromethyl)-5-(6-((4-(1-methyl-1H-pyrazol-5-yl)phenoxy)methyl)pyridin-3-yl)-1,3,4-oxadiazole] | 1 to 100 | – | –
37 | Cn1c(-c2ccc(OCc3ccc(-c4nnc(C(F)F)o4)cn3)cc2)nc2ccccc21 [Compound 200] | 1 to 100 | – | –
38 | Cn1c(-c2cccc(OCc3ccc(-c4nnc(C(F)F)o4)cn3)c2)nc2ccccc21 [Compound 201] | 1 to 100 | – | –
39 | FC(F)c1nnc(-c2ccc(COc3cnc(C(F)(F)F)nc3)nc2)o1 [Compound 205] | 1 to 100 | – | –
40 | FC(F)c1nnc(-c2ccc(COc3cccc(-c4nc5ccccc5[nH]4)c3)nc2)o1 [Compound 206] | 1 to 100 | – | –
41 | FC(F)c1nnc(-c2ccc(COc3ccc(-c4nc5ccccc5[nH]4)cc3)nc2)o1 [Compound 207] | 1 to 100 | – | –
42 | Cn1cnc2c(OCc3ccc(-c4nnc(C(F)F)o4)cn3)cccc21 [Compound 208] | 1 to 100 | – | –
43 | Cn1cnc2ccc(OCc3ccc(-c4nnc(C(F)F)o4)cn3)cc21 [Compound 213] | 1 to 100 | – | –
